Legend:
[1] = test system: over 100 different macromolecular targets; assay: Off-target activity, Ricerca lead seeker selectivity panel; settings: other amine oxidases or over 100 different macromolecular targets
[2] = test system: BALB/c mice; assay: House dust mite/Rhinovirus exacerbated asthma model; assay type: in vivo, mouse; settings: 24 hours post RV1b infection
Experimental: Study performed at the University of Newcastle under local ethics committee. BALB/c mice were sensitized and challenged intranasally to 50 μg of crude HDM extract (Dermatophagoides pteronyssinus extract was obtained from Greer Laboratories) on days 0, 1 and 2 followed by four exposures of 5 μg HDM daily from day 14 to day 17 delivered in 50 μl of sterile saline. Animals were then infected on day 18 with infective Human Rhinovirus 1b RV1B41 (2.5 × 10^6 median tissue culture infective dose) intranasally. Mice were intranasally administered 50 μl infective or ultraviolet light (UV)–inactivated RV1B41. Mice were euthanized 24 hours after the rhinovirus challenge. BAL analysis was performed for total and differential counts and airway hyperreactivity (AHR) was assessed invasively by measurement of total lung resistance and dynamic compliance (BUXCO) in response to methacholine challenge as previously described. […]. Dose of azithromycin was chosen based on previously described findings, in respiratory viral infection models.

## CC(C)(C)NC(=O)c1ccc(OC/C(=C/F)CN)cc1 [PXS-4728A]
[1]
  Off-target activity: does not have any significant off-target activity
[2]; PXS-4728A 2, azithromycin 25 mg.kg^−1 ip.
  Airways hyperreactivity to methacholine challenge: significantly reduced
[2]; PXS-4728A 2, dexamethasone 2, azithromycin 25 mg.kg^−1 ip.
  Total BALF neutrophils: reduced

Reference: article PMC4389443 (Respiratory Research, 2015)
